Test results published in patent US10028942B2 (priority 2013, dated 2018).

Target: T1, DLK (Homo sapiens, UniProt Q12852)
T1 sequence (Q12852 1-520): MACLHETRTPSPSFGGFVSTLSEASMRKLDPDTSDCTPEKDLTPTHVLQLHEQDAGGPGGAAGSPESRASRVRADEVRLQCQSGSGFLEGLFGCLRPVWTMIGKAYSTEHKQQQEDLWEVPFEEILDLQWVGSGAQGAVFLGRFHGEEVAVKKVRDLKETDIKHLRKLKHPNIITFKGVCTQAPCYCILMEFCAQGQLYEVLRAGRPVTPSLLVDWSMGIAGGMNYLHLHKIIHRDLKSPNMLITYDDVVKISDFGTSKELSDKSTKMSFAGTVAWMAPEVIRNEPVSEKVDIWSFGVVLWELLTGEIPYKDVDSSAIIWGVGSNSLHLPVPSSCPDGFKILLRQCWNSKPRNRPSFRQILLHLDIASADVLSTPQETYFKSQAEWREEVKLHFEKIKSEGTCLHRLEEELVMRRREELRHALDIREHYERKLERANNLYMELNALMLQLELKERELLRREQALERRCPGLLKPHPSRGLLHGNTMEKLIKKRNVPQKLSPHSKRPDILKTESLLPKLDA
Details: read-out: DLK (Ki) μM; TR-FRET; 5 nM GST-tagged DLK (catalytic domain aa 1-520), 40 nM HIS-MKK4 K131M substrate, 30 μM ATP, 60 minutes

Point of comparison: CC(C)n1nc(-c2cnc3[nH]cc(C(F)(F)F)c3c2)cc1C1CN(C2COC2)C1 [Compound 54, 5-(1-isopropyl-5-(1-(oxetan-3-yl)aze-tidin-3-yl)-1H-pyrazol-3-yl)-3-(trifluoro-methyl)-1H-pyrrolo[2,3-b]pyridine], Ki 0.00048 µM. Against it:
- Nc1ncc(-c2cc([C@H]3[C@@H]4CN(C5COC5)C[C@@H]43)n(C3CCCC3)n2)cc1OC(F)(F)F [Compound 166, 5-(1-cyclopentyl-5-((1R,5S,6r)-3-(oxe-tan-3-yl)-3-azabicyclo[3.1.0]hexan-6-yl)-1H-pyrazol-3-yl)-3-(trifluoro-methoxy)pyridin-2-amine] — 9.8-fold higher, 0.0047 µM
- CC(C)n1nc(-c2cnc3[nH]cc(C#N)c3c2)cc1C1CCN(CC(F)(F)F)CC1 [Compound 46, 5-(1-isopropyl-5-(1-(2,2,2-trifluoroethyl)piperidin-4-yl)-1H-pyrazol-3-yl)-1H-pyrrolo[2,3-b]pyridine-3-carbonitrile] — 58-fold higher, 0.028 µM
- CC(C)n1nc(-c2cnc(N)c(C(F)(F)F)c2)cc1C1CCN(C2COC2)C1 (centres unmarked) [Compound 67, 5-(1-isopropyl-5-(1-(oxetan-3-yl)pyr-rolidin-3-yl)-1H-pyrazol-3-yl)-3-(tri-fluoromethyl)pyridin-2-amine] — 62-fold higher, 0.03 µM
- Nc1ncc(-c2cc([C@H]3[C@@H]4CN(C5COC5)C[C@@H]43)n(CC3CCC3)n2)cc1C(F)(F)F [Compound 160, 5-(1-(cyclobutylmethyl)-5-((1R,5S,6r)-3-(oxetan-3-yl)-3-azabicyclo[3.1.0]hexan-6-yl)-1H-pyrazol-3-yl)-3-(tri-fluoromethyl)pyridin-2-amine] — 17-fold higher, 0.0081 µM
- CC(C)n1nc(-c2cnc3[nH]cc(F)c3c2)cc1C1CCN(C2COC2)C1 (centres unmarked) [Compound 66, 3-fluoro-5-(1-isopropyl-5-(1-(oxetan-3-yl)pyrrolidin-3-yl)-1H-pyrazol-3-yl)-1H-pyrrolo[2,3-b]pyridine] — 230-fold higher, 0.11 µM
- CC(C)Oc1cc(-c2cc(C3CCN(C4COC4)CC3)n(C3CCCC3)n2)cnc1N [Compound 90, 5-(1-cyclopentyl-5-(1-(oxetan-3-yl)piperidin-4-yl)-1H-pyrazol-3-yl)-3-iso-propoxypyridin-2-amine] — 250-fold higher, 0.12 µM
- CC(C)n1nc(-c2cnc(N)c(C(F)(F)F)c2)cc1[C@H]1[C@@H]2CN(CC(F)F)C[C@@H]21 [Compound 109, 5-(5-((1R,5S,6r)-3-(2,2-difluoroethyl)-3-azabicyclo[3.1.0]hexan-6-yl)-1-isopropyl-1H-pyrazol-3-yl)-3-(trifluoro-methyl)pyridin-2-amine] — 2.1-fold higher, 0.001 µM
- COc1cc(-c2cc([C@H]3[C@@H]4CN(C5COC5)C[C@@H]43)n(C(C)C)n2)cnc1N [Compound 145, 5-(1-isopropyl-5-((1R,5S,6r)-3-(oxetan-3-yl)-3-azabicyclo[3.1.0]hexan-6-yl)-1H-pyrazol-3-yl)-3-methoxy-pyridin-2-amine] — 15-fold higher, 0.0074 µM
- CC(C)n1nc(-c2cnc(N)c(C#N)c2)cc1[C@H]1[C@@H]2CN(C3COC3)C[C@@H]21 [Compound 144, 2-amino-5-(1-isopropyl-5-((1R,5 S,6r)-3-(oxetan-3-yl)-3-azabicyclo[3.1.0]hexan-6-yl)-1H-pyrazol-3-yl)nicotinonitrile] — 46-fold higher, 0.022 µM
- COCCN1C[C@@H]2[C@H](C1)[C@H]2c1cc(-c2cnc(N)c(C(F)(F)F)c2)nn1C(C)C [Compound 117, 5-(1-isopropyl-5-((1R,5 S,6r)-3-(2-methoxyethyl)-3-azabicyclo[3.1.0]hexan-6-yl)-1H-pyrazol-3-yl)-3-(trifluoromethyl)pyridin-2-amine] — 20-fold higher, 0.0094 µM
- CC(C)n1nc(-c2cnc(N)c(C#N)c2)cc1C1CCN(C2COC2)CC1 [Compound 92, 2-amino-5-(1-isopropyl-5-(1-(oxetan-3-yl)piperidin-4-yl)-1H-pyrazol-3-yl)nicotinonitrile] — 2000-fold higher, 0.94 µM
- CC(C)n1nc(-c2cnc(N)c(C(F)(F)F)c2)cc1C1CN(C2COC2)C1 [Compound 60, 5-(1-isopropyl-5-(1-(oxetan-3-yl)azetidin-3-yl)-1H-pyrazol-3-yl)-3-(trifluoromethyl)pyridin-2-amine] — 56-fold higher, 0.027 µM
- CC(C)n1nc(-c2cnc3[nH]cc(C#N)c3c2)cc1C1CN(C2COC2)C1 [Compound 59, 5-(1-isopropyl-5-(1-(oxetan-3-yl)aze-tidin-3-yl)-1H-pyrazol-3-yl)-1H-pyrro-lo[2,3-b]pyridine-3-carbonitrile] — 650-fold higher, 0.31 µM
- CC(C)n1nc(-c2cnc(N)c(OC(F)(F)F)c2)cc1C(C)(C)C#N [Compound 6, 2-(3-(6-amino-5-(trifluoromethoxy)pyridin-3-yl)-1-isopropyl-1H-pyrazol-5-yl)-2-methylpropanenitrile] — 290-fold higher, 0.14 µM
- CC(C)n1nc(-c2cnc3[nH]cc(C(F)(F)F)c3c2)cc1C1CCN(C2COC2)CC1 [Compound 70, 5-(1-isopropyl-5-(1-(oxetan-3-yl)pipe-ridin-4-yl)-1H-pyrazol-3-yl)-3-(tri-fluoromethyl)-1H-pyrrolo[2,3-b]pyri-dine] — 4.8-fold higher, 0.0023 µM
- Nc1ncc(-c2cc([C@H]3[C@@H]4CN(CC(F)(F)F)C[C@@H]43)n(C3COC3)n2)cc1Cl [Compound 111, 3-chloro-5-(1-(oxetan-3-yl)-5-((1R,5S, 6r)-3-(2,2,2-trifluoroethyl)-3-azabi-cyclo[3.1.0]hexan-6-yl)-1H-pyrazol-3-yl)pyridin-2-amine] — 380-fold higher, 0.18 µM
- Nc1ncc(-c2cc([C@H]3[C@@H]4CN(C5COC5)C[C@@H]43)n(C3CC3)n2)cc1C(F)(F)F [Compound 168, 5-(1-cyclopropyl-5-((1R,5S,6r)-3-(oxe-tan-3-yl)-3-azabicyclo[3.1.0]hexan-6-yl)-1H-pyrazol-3-yl)-3-(trifluoro-methyl)pyridin-2-amine] — 9.8-fold higher, 0.0047 µM
- Nc1ncc(-c2cc([C@H]3[C@@H]4CN(C5COC5)C[C@@H]43)n(CC3CC3)n2)cc1C(F)(F)F [Compound 152, 5-(1-(cyclopropylmethyl)-5-((1R,5S,6r)-3-(oxetan-3-yl)-3-azabicyclo[3.1.0]hexan-6-yl)-1H-pyrazol-3-yl)-3-(tri-fluoromethyl)pyridin-2-amine] — 2.8-fold lower, 0.00017 µM
- CC(C)Oc1cc(-c2cc(C3CCN(C4COC4)CC3)n(C(C)C)n2)cnc1N [Compound 84, 3-isopropoxy-5-(1-isopropyl-5-(1-(oxe-tan-3-yl)piperidin-4-yl)-1H-pyrazol-3-yl)pyridin-2-amine] — 540-fold higher, 0.26 µM
- Nc1ncc(-c2cc([C@H]3[C@@H]4CN(C5COC5)C[C@@H]43)n(C3CCCC3)n2)cc1C(F)F [Compound 171, 5-(1-cyclopentyl-5-((1R,5S,6r)-3-(oxe-tan-3-yl)-3-azabicyclo[3.1.0]hexan-6-yl)-1H-pyrazol-3-yl)-3-(difluoro-methyl)pyridin-2-amine] — 33-fold higher, 0.016 µM
- CC(C)c1cc(-c2cnc3[nH]cc(C(F)(F)F)c3c2)nn1C1CN(C2COC2)C1 [Compound 1, 5-(5-isopropyl-1-(1-(oxetan-3-yl)azetidin-3-yl)-1H-pyrazol-3-yl)-3-(trifluoromethyl)-1H-pyrrolo[2,3-b]pyridine] — 71-fold higher, 0.034 µM
- CC(C)n1nc(-c2cnc(N)c(Cl)c2)cc1[C@H]1[C@@H]2CN(C3COC3)C[C@@H]21 [Compound 140, 3-chloro-5-(1-isopropyl-5-((1R,5S,6r)-3-(oxetan-3-yl)-3-azabicyclo[3.1.0]hexan-6-yl)-1H-pyrazol-3-yl)pyridin-2-amine] — 83-fold higher, 0.04 µM
- CC(C)n1nc(-c2cnc(N)c(C(F)(F)F)c2)cc1C1CCN(C2COC2)CC1 [Compound 76, 5-(1-isopropyl-5-(1-(oxetan-3-yl)piperidin-4-yl)-1H-pyrazol-3-yl)-3-(trifluoromethyl)pyridin-2-amine] — 310-fold higher, 0.15 µM
- Nc1ncc(-c2cc([C@H]3[C@@H]4CN(C5COC5)C[C@@H]43)n(CC3CC3)n2)cc1OC(F)F [Compound 173, 5-(1-(cyclopropylmethyl)-5-((1R,5S,6r)-3-(oxetan-3-yl)-3-azabicyclo[3.1.0]hexan-6-yl)-1H-pyrazol-3-yl)-3-(difluoromethoxy)pyridin-2-amine] — 8.1-fold higher, 0.0039 µM
- Nc1ncc(-c2cc([C@H]3[C@@H]4CNC[C@@H]43)n(CC(F)(F)F)n2)cc1C(F)(F)F [Compound 107, 5-(5-((1R,5S,6r)-3-azabicyclo[3.1.0]hexan-6-yl)-1-(2,2,2-trifluoroethyl)-1H-pyrazol-3-yl)-3-(trifluoromethyl) pyridin-2-amine] — 5-fold higher, 0.0024 µM
- Nc1ncc(-c2cc([C@H]3[C@@H]4CN(C5COC5)C[C@@H]43)n(C3CCC3)n2)cc1C(F)(F)F [Compound 148, 5-(1-cyclobutyl-5-((1R,5S,6r)-3-(oxetan-3-yl)-3-azabicyclo[3.1.0]hexan-6-yl)-1H-pyrazol-3-yl)-3-(trifluoromethyl)pyridin-2-amine] — 2.5-fold higher, 0.0012 µM
- CC1(Cn2nc(-c3cnc(N)c(C(F)(F)F)c3)cc2[C@H]2[C@@H]3CN(C4COC4)C[C@@H]32)CC1 [Compound 177, 5-(1-((1-methylcyclopropyl)methyl)-5-((1R,5S,6r)-3-(oxetan-3-yl)-3-aza-bicyclo[3.1.0]hexan-6-yl)-1H-pyrazol-3-yl)-3-(trifluoromethyl)pyridin-2-amine] — within 1.5-fold, 0.00067 µM
- CC(C)n1nc(-c2cnc3[nH]cc(C(F)(F)F)c3c2)cc1C1CCN(CC#N)CC1 [Compound 51, 2-(4-(1-isopropyl-3-(3-(trifluorometh-yl)-1H-pyrrolo[2,3-b]pyridin-5-yl)-1H-pyrazol-5-yl)piperidin-1-yl)aceto-nitrile] — 2.8-fold lower, 0.00017 µM
